Literature values in US6610702B2, “Ammonium salts of inositol hexaphosphate, and uses thereof” (GMP Oxycell, Inc., priority 2000, dated 2003).
Read-outs that look alike come from different tables or passages of the source.

Tests used:
stripped hemoglobin = stripped hemoglobin (Homo sapiens, UniProt P68871); conditions: pH 7.4, cited from earlier work
human RBCs = conditions: IHP encapsulated in human RBCs by continuous-flow electroporation; cited from earlier work
[1] = target: allosteric site on hemoglobin (Homo sapiens, UniProt P68871); conditions: displaces hemoglobin-bound 2,3-DPG; cited from earlier work
[2] = buffer 100 mM sodium phosphate, pH 7.0; cited from earlier work

Sequence of stripped hemoglobin (P68871 2-147 limits assumed): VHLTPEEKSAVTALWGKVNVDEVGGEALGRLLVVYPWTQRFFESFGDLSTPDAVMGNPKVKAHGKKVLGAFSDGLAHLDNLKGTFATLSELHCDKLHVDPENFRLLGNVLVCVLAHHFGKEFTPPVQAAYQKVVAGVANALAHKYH
Sequence of stripped hemoglobin (P69905 2-142 partner limits assumed): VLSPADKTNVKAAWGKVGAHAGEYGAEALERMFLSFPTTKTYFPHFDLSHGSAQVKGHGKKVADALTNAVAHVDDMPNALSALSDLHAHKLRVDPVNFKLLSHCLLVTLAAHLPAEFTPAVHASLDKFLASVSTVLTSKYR
Sequence of allosteric site on hemoglobin (P68871 2-147 limits assumed): as the sequence (P68871 2-147 limits assumed) above
Sequence of allosteric site on hemoglobin (P69905 2-142 partner limits assumed): as the sequence (P69905 2-142 partner limits assumed) above

Compound | half-saturation pressure P(O2) (½) of stripped hemoglobin (stripped hemoglobin; 25 C., stripped hemoglobin alone 4.3) [mm Hg] | half-saturation pressure P(O2) (½) of stripped hemoglobin (stripped hemoglobin; 37 C., stripped hemoglobin alone 9.3) [mm Hg] | P50 of modified RBCs (human RBCs) | affinity for the allosteric site relative to 2,3-DPG [1] | Octanol/buffer partition coefficient [2]
O=P(O)(O)O[C@H]1[C@H](OP(=O)(O)O)[C@@H](OP(=O)(O)O)[C@H](OP(=O)(O)O)[C@@H](OP(=O)(O)O)[C@H]1OP(=O)(O)O [IHP, inositol hexaphosphate] | 48.4 | 96.4 | approximately 50 torr | one-thousand times greater affinity | 
Cc1cn([C@H]2CC(O)[C@@H](CO)O2)c(=O)[nH]c1=O (some centres unmarked) |  |  |  |  | 0.064
